Literature values as cited in US10806826B2, “Bone graft substitute containing a temporary contrast agent and a method of generating such and a method of use thereof” (BACTERIN INTERNATIONAL, INC., priority 2013, dated 2020).
Where two headings read alike, the source gives them in different places. One block for each compound: values may come before it.

Experiments:
[1] = intravascular
[2] = oral, dosage 2-12 mL/kg
[3] = intravenous

- Clearance/Half-life (t1/2) ([1]; dosage 1.2 g/kg): 9.4 h
- Clearance/Half-life (t1/2) ([1]; dosage 1.8 g/kg): t1/2 = 6.1 hours
- Clearance: excreted within 24 hours [2]: >95% excreted
SMILES: FC(F)(F)C(F)(F)C(F)(F)C(F)(F)C(F)(F)C(F)(F)C(F)(F)C(F)(F)Br [Perfluorooctyl bromide, perfluorooctyl bromide]

- Clearance/Half-life (t1/2) [3]: 1510 h
SMILES: FC(F)(F)C(F)(F)C(F)(F)N(C(F)(F)C(F)(F)C(F)(F)F)C(F)(F)C(F)(F)C(F)(F)F [Perfluorotripropylamine]

- Clearance: excreted within 24 hours ([1]; dosage 500-1500 mgl/kg): ~90% excreted
- Clearance/Half-life (t1/2) ([3]; dosage varies by imaging needs): t1/2 = 30-60 minutes
SMILES: CC(=O)N(CC(O)CO)c1c(I)c(C(=O)NCC(O)CO)c(I)c(C(=O)NCC(O)CO)c1I (stereo not shown) [Iohexol]

- Clearance/Half-life (t1/2) [3]: 140 h
SMILES: FC1(F)C(F)(F)C(F)(F)C2(F)C(F)(F)C(F)(F)C(F)(F)C(F)(F)C2(F)C1(F)F (stereo not shown) [Perfluorodecalin]
